Test results taken from PMC3935458 (Journal of medicinal chemistry, 2012).

What was measured:
[1] = system: phosphorylation of C-Nap1; assay: Phosphorylated C-Nap1 in cell assay; details: for modulation of C-Nap1 phosphorylation: aphidicolin-synchronized U2OS cells, different concentrations
Nek2 = target: T1, Nek2 (Homo sapiens, UniProt P51955); format: biochemical
T1 sequence (P51955 1-445): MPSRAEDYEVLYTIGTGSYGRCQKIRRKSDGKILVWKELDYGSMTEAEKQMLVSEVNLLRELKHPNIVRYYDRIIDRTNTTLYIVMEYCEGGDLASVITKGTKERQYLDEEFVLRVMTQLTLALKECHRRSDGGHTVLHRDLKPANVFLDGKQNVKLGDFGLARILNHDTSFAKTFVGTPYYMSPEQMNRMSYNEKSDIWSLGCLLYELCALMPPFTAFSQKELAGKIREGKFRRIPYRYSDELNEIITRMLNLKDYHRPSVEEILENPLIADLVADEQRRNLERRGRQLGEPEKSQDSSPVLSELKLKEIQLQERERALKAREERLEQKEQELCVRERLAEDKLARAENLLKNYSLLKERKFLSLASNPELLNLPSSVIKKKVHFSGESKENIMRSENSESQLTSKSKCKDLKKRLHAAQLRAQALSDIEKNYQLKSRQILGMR

CC(Oc1cc(-n2cnc3cc(OC4CCN(C)CC4)ccc32)ccc1C(N)=O)c1ccccc1C(F)(F)F (racemic) [rac-3, reference compound]
modulation of C-Nap1 phosphorylation [1]: did not show any significant modulation of C-Nap1 phosphorylation

CC(Oc1cc(-c2cc(-c3ccc(CN4CCOCC4)s3)cnc2N)ccc1C(N)=O)c1ccccc1C(F)(F)F (stereo not shown) [17g]
increase of Nek2 IC50 compared with compound 17c (Nek2): more than 7 fold

C[C@@H](/C=C\C(F)(F)F)Oc1cc(-c2cc(-c3cc(CN(C)C)cs3)cnc2N)ccc1C(N)=O [(S)-21, (S)-(Z)-4-(2-Amino-5-(4-((dimethylamino)methyl)thiophen-2-yl)pyridin-3-yl)-2-((5,5,5-trifluoropent-3-en-2-yl)oxy)benzamide]
modulation of C-Nap1 phosphorylation [1]: significantly less suppression of C-Nap1 phosphorylation

C[C@@H](Oc1cc(-c2cc(-c3cc(CN(C)C)cs3)cnc2N)ccc1C(N)=O)c1ccccc1C(F)(F)F [(R)-17j]
IC50 ([1]; Homo sapiens, U2OS, 3 h, read-out: IC50 for C-Nap1 phosphorylation inhibition): 2700 nM
